Results reported in patent US12419896B2, “Compositions and dosage forms for oral delivery” (RHODES TECHNOLOGIES, priority 2018, dated 2025).

Columns and labels:
[1] = versus Δ^9-THC; oxidation to cannabinol, shelf life; cited from earlier work
[2] = most pharmacological tests; Ophthalmic Res. (1992) 24:142-149; cited from earlier work
[3] = Miscibility of sesame oil in 40% IPA/HFA 134a; format: physicochemical; conditions: based on 10% w/v dronabinol in sesame oil
Method: In some embodiments, formulations deliver between 0.25 mg and 2 mg dose of dronabinol after application. Table 4 details the % w/w dronabinol required in the canister to achieve such doses for different actuator volumes available ([…]). The miscibility of sesame oil in 40% IPA/HFA 134a has been determined to be 7.2% w/w, equivalent to 0.8% dronabinol, based on 10% w/v dronabinol in sesame oil. Therefore, the dose of dronabinol (mg) produced from each of the difference actuator volumes based on a level of 0.8% w/w dronabinol in canisters has been presented in Table 5.

[4] = cited from earlier work

Structure (SMILES)	Stability compared with Δ^9-THC [1]	Potency compared with Δ^9-THC [2]	Level of dronabinol equivalent to the sesame oil miscibility limit [3] [%]	Solubility in water [4]
CCCCCc1cc(O)c2c(c1)OC(C)(C)[C@@H]1CC=C(C)C[C@@H]21 (relative stereo) [Δ^8-THC, (−)-trans-Δ^8-tetrahydrocannabinol]	more stable	less potent	–	–
CCCCCc1cc(O)c2c(c1)OC(C)(C)C1CCC(C)=CC21 (single isomer, unassigned; (-)) [dronabinol, (−)-trans-Δ^9-tetrahydrocannabinol]	–	–	0.8	insoluble
